From patent US20250034159A1, “INHIBITORS OF EPIDERMAL GROWTH FACTOR RECEPTOR” (ORIC Pharmaceuticals, Inc., priority 2021, published 2025) come the findings set out here.

For one experiment, the system named is BaF3_EGFR d19/CS cells. The experiment is described as follows: Biological Activity Assay D: BaF3 cell proliferation assay, EGFR exon 19 deletion/C797S (BaF3 d19/CS). The class given is cell-based. The conditions noted are these: Ba/F3 EGFR, read-out: BaF3 d19/CS IC50.
For the next experiment, the system named is BaF3_EGFR LR/CS cells. Kind of experiment: Biological Activity Assay D: BaF3 cell proliferation assay, EGFR L858R/C797S mutant (BaF3 LR/CS). The note with it: Ba/F3 EGFR, read-out: BaF3 LR/CS IC50. The class given is cell-based.
Experiment [1] deals with recombinant human EGFR exon 19 deletion/C797S double mutant protein (Homo sapiens (Human), UniProt P00533, C797S/DEL746-750). Kind of experiment: Biological Activity Assay C: biochemical assay against EGFR exon 19 deletion/C797S protein (EGFR d19/CS). The method, boiled down: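 Compounds were tested as 16-point serial dilutions (final DMSO 2.5%) with a Phosphosens peptide sensor/ATP working solution (40 uM/4 mM). The signal was read kinetically over 90 cycles at 120 s intervals. IC50s came from 4-parameter fits of per-well slopes.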

Another experiment concerns Ba/F3_EGFR WT cells. The experiment is described as follows: Biological Activity Assay D: BaF3 cell proliferation assay, EGFR wild-type (BaF3 WT). In kind it is cell-based. The note with it: Ba/F3 EGFR, read-out: BaF3 WT IC50.
The mark [2] stands for this setting: BaF3_EGFR d19/CS cells, ~72 hours, CellTiter-Glo.
Setting [3] is: BaF3_EGFR LR/CS cells, ~72 hours, CellTiter-Glo.
Where [4] appears, read: Ba/F3_EGFR WT cells, ~72 hours, CellTiter-Glo.

Like-named read-outs stand apart in the source and are kept apart here.

Sequence of recombinant human EGFR exon 19 deletion/C797S double mutant protein (P00533 other isoform, or with tags, fused parts or gaps C797S/del 1-668/del 746-750 limits assumed): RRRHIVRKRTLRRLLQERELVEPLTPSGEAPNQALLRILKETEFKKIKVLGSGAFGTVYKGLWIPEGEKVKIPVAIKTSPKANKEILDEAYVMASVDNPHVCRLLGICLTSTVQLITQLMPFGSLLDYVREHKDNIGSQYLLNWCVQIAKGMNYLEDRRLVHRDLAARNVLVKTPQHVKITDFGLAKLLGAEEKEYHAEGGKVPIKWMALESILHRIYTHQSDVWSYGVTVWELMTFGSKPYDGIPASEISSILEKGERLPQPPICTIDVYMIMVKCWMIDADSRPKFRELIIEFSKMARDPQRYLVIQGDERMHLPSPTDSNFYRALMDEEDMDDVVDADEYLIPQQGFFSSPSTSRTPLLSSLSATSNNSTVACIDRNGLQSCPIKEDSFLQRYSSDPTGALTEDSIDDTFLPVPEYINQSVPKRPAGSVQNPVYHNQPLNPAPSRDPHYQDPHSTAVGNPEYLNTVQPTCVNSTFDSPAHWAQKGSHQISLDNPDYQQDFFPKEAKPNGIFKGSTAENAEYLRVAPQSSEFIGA

In the case of `NC(=O)c1ccccc1-c1cc2c(-c3cn(C4CS(=O)(=O)C4)nc3-c3ccc(F)cc3)ncnc2o1` [Example 183, 2-{4-[1-(1,1-dioxo-1λ6-thietan-3-yl)-3-(4-fluorophenyl)-1H-pyrazol-4-yl]furo[2,3-d]pyrimidin-6-yl}benzamide], the IC50 in the experiment with BaF3_EGFR d19/CS cells (setting [2]) was found to be 146 nM; in the experiment with BaF3_EGFR LR/CS cells (setting [3]) it was 145 nM; in experiment [1] it was 0.14 nM; in the experiment with Ba/F3_EGFR WT cells (setting [4]), 5420 nM.
As to `Fc1ccc(-c2nn([C@@H]3C[C@H]4CC[C@@H](C3)O4)cc2-c2ncnc3oc(-c4ccccc4)cc23)cc1` [Example 186, 4-{3-(4-fluorophenyl)-1-[(1R,3s,5S)-8-oxabicyclo[3.2.1]octan-3-yl]-1H-pyrazol-4-yl}-6-phenylfuro[2,3-d]pyrimidine], the IC50 in the experiment with BaF3_EGFR d19/CS cells (setting [2]) came to 348 nM; with BaF3_EGFR LR/CS cells (setting [3]) it was 186 nM; in experiment [1] it was 0.63 nM; in the experiment with Ba/F3_EGFR WT cells (setting [4]), 4450 nM.
Consider `O=S1(=O)CC(n2cc(-c3ncnc4oc(-c5cccnn5)cc34)c(-c3ccc(F)cc3)n2)C1` [Example 187, 3-{3-(4-fluorophenyl)-4-[6-(pyridazin-3-yl)furo[2,3-d]pyrimidin-4-yl]-1H-pyrazol-1-yl}-1λ6-thietane-1,1-dione], for which the IC50 in the experiment on BaF3_EGFR d19/CS cells (setting [2]) worked out at 589 nM; with BaF3_EGFR LR/CS cells (setting [3]), 1240 nM; in experiment [1], 3.36 nM; in the experiment on Ba/F3_EGFR WT cells (setting [4]), 9020 nM.
Take `O=S1(=O)CC(n2cc(-c3ncnc4oc(-c5cnccn5)cc34)c(-c3ccc(F)cc3)n2)C1` [Example 188, 3-{3-(4-fluorophenyl)-4-[6-(pyrazin-2-yl)furo[2,3-d]pyrimidin-4-yl]-1H-pyrazol-1-yl}-1λ6-thietane-1,1-dione]: the IC50 turned out to be 246 nM in the experiment on BaF3_EGFR d19/CS cells (setting [2]), 489 nM in the experiment with BaF3_EGFR LR/CS cells (setting [3]), 2.23 nM in experiment [1] and 11700 nM in the experiment on Ba/F3_EGFR WT cells (setting [4]).
The like results for `C[C@@H]1C[C@@H](n2cc(-c3ncnc4oc(-c5ccccc5)cc34)c(-c3ccc(F)cc3)n2)CN1S(C)(=O)=O` [Example 189, 4-{3-(4-fluorophenyl)-1-[(3R,5R)-1-(methanesulfonyl)-5-methylpyrrolidin-3-yl]-1H-pyrazol-4-yl}-6-phenylfuro[2,3-d]pyrimidine] were, in that order, 5.86 nM, 5.51 nM, 0.26 nM and 132 nM.
The matching figures for `O=S1(=O)CC(n2cc(-c3ncnc4oc(-c5cccc(CN6CCOCC6)c5)cc34)c(-c3ccc(F)cc3)n2)C1` [Example 190, 3-[3-(4-fluorophenyl)-4-(6-{3-[(morpholin-4-yl)methyl]phenyl}furo[2,3-d]pyrimidin-4-yl)-1H-pyrazol-1-yl]-16-thietane-1,1-dione]: 59.1 nM, 64 nM, 0.18 nM and 2160 nM.
As to `CC(=O)N1CC=C(c2nc3c(-c4cn(C5CS(=O)(=O)C5)nc4-c4ccc(F)cc4)ncnc3[nH]2)CC1` [Example 191, 3-{4-[8-(1-acetyl-1,2,3,6-tetrahydropyridin-4-yl)-9H-purin-6-yl]-3-(4-fluorophenyl)-1H-pyrazol-1-yl}-1λ6-thietane-1,1-dione], the IC50 is above 20000 nM in the experiment with BaF3_EGFR d19/CS cells (setting [2]), above 20000 nM in the experiment with BaF3_EGFR LR/CS cells (setting [3]), 0.65 nM in experiment [1] and above 20000 nM in the experiment with Ba/F3_EGFR WT cells (setting [4]).
As for `CS(=O)(=O)[C@H]1C[C@H](n2cc(-c3ncnc4oc(-c5ccccc5)cc34)c(-c3ccc(F)cc3)n2)C1` [Example 194, 4-{3-(4-fluorophenyl)-1-[(1r,3r)-3-(methanesulfonyl)cyclobutyl]-1H-pyrazol-4-yl}-6-phenylfuro[2,3-d]pyrimidine], the IC50 in the experiment on BaF3_EGFR d19/CS cells (setting [2]) stood at 274 nM; with BaF3_EGFR LR/CS cells (setting [3]) it was 175 nM; in experiment [1], 0.83 nM; with Ba/F3_EGFR WT cells (setting [4]), 3610 nM.
Consider `O=S1(=O)CC(n2cc(-c3ncnc4oc(-c5ncccn5)cc34)c(-c3ccc(F)cc3)n2)C1` [Example 195, 3-{3-(4-fluorophenyl)-4-[6-(pyrimidin-2-yl)furo[2,3-d]pyrimidin-4-yl]-1H-pyrazol-1-yl}-1λ6-thietane-1,1-dione], for which the IC50 in the experiment with BaF3_EGFR d19/CS cells (setting [2]) was 365 nM; in the experiment with BaF3_EGFR LR/CS cells (setting [3]), 799 nM; in experiment [1] it was 6.89 nM; in the experiment on Ba/F3_EGFR WT cells (setting [4]) it was 6000 nM.
For `O=S1(=O)CC(n2cc(-c3ncnc4oc(-c5ccncn5)cc34)c(-c3ccc(F)cc3)n2)C1` [Example 196, 3-{3-(4-fluorophenyl)-4-[6-(pyrimidin-4-yl)furo[2,3-d]pyrimidin-4-yl]-1H-pyrazol-1-yl}-1λ6-thietane-1,1-dione], the IC50 with BaF3_EGFR d19/CS cells (setting [2]) is 133 nM; in the experiment on BaF3_EGFR LR/CS cells (setting [3]), 212 nM; in experiment [1], 0.89 nM; in the experiment with Ba/F3_EGFR WT cells (setting [4]), 1740 nM.
Regarding `C[C@H]1C[C@H](n2cc(-c3ncnc4oc(-c5ccccc5)cc34)c(-c3ccc(F)cc3)n2)CN1S(C)(=O)=O` [Example 197, 4-{3-(4-fluorophenyl)-1-[(3S,5S)-1-(methanesulfonyl)-5-methylpyrrolidin-3-yl]-1H-pyrazol-4-yl}-6-phenylfuro[2,3-d]pyrimidine], the IC50 in the experiment on BaF3_EGFR d19/CS cells (setting [2]) is 46.5 nM; with BaF3_EGFR LR/CS cells (setting [3]), 12.8 nM; in experiment [1], 0.45 nM; in the experiment on Ba/F3_EGFR WT cells (setting [4]), 139 nM.
In the case of `C[C@H]1C[C@@H](n2cc(-c3ncnc4oc(-c5ccccc5)cc34)c(-c3ccc(F)cc3)n2)CN1S(C)(=O)=O` [Example 198, 4-{3-(4-fluorophenyl)-1-[(3R,5S)-1-(methanesulfonyl)-5-methylpyrrolidin-3-yl]-1H-pyrazol-4-yl}-6-phenylfuro[2,3-d]pyrimidine], the IC50 in the experiment on BaF3_EGFR d19/CS cells (setting [2]) stood at 51.9 nM; in the experiment with BaF3_EGFR LR/CS cells (setting [3]), 17.9 nM; in experiment [1], 0.72 nM; with Ba/F3_EGFR WT cells (setting [4]), 703 nM.
As for `Cn1cnc(-c2cc3c(-c4cn(C5CS(=O)(=O)C5)nc4-c4ccc(F)cc4)ncnc3o2)c1` [Example 200, 3-{3-(4-fluorophenyl)-4-[6-(1-methyl-1H-imidazol-4-yl)furo[2,3-d]pyrimidin-4-yl]-1H-pyrazol-1-yl}-16-thietane-1,1-dione], the IC50 with BaF3_EGFR d19/CS cells (72 h) was 8.78 nM; in the experiment with BaF3_EGFR LR/CS cells (72 h), 5.04 nM; in experiment [1], 0.13 nM; in the experiment with Ba/F3_EGFR WT cells (72 h), 412 nM.
For the compound `Cn1ccnc1-c1cc2c(-c3cn(C4CS(=O)(=O)C4)nc3-c3ccc(F)cc3)ncnc2o1` [Example 201, 3-{3-(4-fluorophenyl)-4-[6-(1-methyl-1H-imidazol-2-yl)furo[2,3-d]pyrimidin-4-yl]-1H-pyrazol-1-yl}-1λ6-thietane-1,1-dione], the IC50 in the experiment on BaF3_EGFR d19/CS cells (setting [2]) is 142 nM; in the experiment on BaF3_EGFR LR/CS cells (setting [3]), 200 nM; in experiment [1] it was 0.52 nM; in the experiment with Ba/F3_EGFR WT cells (setting [4]) it was 1580 nM.
As to `CC1(C)CC(n2cc(-c3ncnc4oc(-c5ccccc5)cc34)c(-c3ccc(F)cc3)n2)CCO1` (centres unmarked) [Example 202, 4-[1-(2,2-dimethyloxan-4-yl)-3-(4-fluorophenyl)-1H-pyrazol-4-yl]-6-phenylfuro[2,3-d]pyrimidine], the IC50 in the experiment on BaF3_EGFR d19/CS cells (setting [2]) turned out to be 512 nM; in the experiment on BaF3_EGFR LR/CS cells (setting [3]), 219 nM; in experiment [1], 1.48 nM; in the experiment with Ba/F3_EGFR WT cells (setting [4]) it was 2350 nM.
Regarding `CN(c1cccc(-c2cc3c(-c4cn(C5CS(=O)(=O)C5)nc4-c4ccc(F)cc4)ncnc3o2)c1)S(C)(=O)=O` [Example 203, N-(3-{4-[1-(1,1-dioxo-1λ6-thietan-3-yl)-3-(4-fluorophenyl)-1H-pyrazol-4-yl]furo[2,3-d]pyrimidin-6-yl}phenyl)-N-methylmethanesulfonamide], the IC50 with BaF3_EGFR d19/CS cells (setting [2]) was found to be 17.1 nM; in the experiment with BaF3_EGFR LR/CS cells (setting [3]), 10.6 nM; in experiment [1], 0.14 nM; in the experiment with Ba/F3_EGFR WT cells (setting [4]) it was 289 nM.
Turning to `Fc1ccc(-c2nn(CC3CCC(F)(F)CC3)cc2-c2ncnc3oc(-c4ccccc4)cc23)cc1` [Example 204, 4-{1-[(4,4-difluorocyclohexyl)methyl]-3-(4-fluorophenyl)-1H-pyrazol-4-yl}-6-phenylfuro[2,3-d]pyrimidine], the IC50 in the experiment on BaF3_EGFR d19/CS cells (setting [2]) was 1220 nM; in the experiment with BaF3_EGFR LR/CS cells (setting [3]), 288 nM; in experiment [1] it was 10.2 nM; with Ba/F3_EGFR WT cells (setting [4]) it was 8130 nM.
For `CN1CCN(Cc2cccc(-c3cc4c(-c5cn(C6CS(=O)(=O)C6)nc5-c5ccc(F)cc5)ncnc4o3)c2)CC1` [Example 205, 3-[3-(4-fluorophenyl)-4-(6-{3-[(4-methylpiperazin-1-yl)methyl]phenyl}furo[2,3-d]pyrimidin-4-yl)-1H-pyrazol-1-yl]-1λ6-thietane-1,1-dione], the IC50 turned out to be 49.7 nM in the experiment on BaF3_EGFR d19/CS cells (setting [2]), 51 nM in the experiment with BaF3_EGFR LR/CS cells (setting [3]), 0.11 nM in experiment [1] and 1280 nM in the experiment on Ba/F3_EGFR WT cells (setting [4]).
Consider `O=S1(=O)CC(n2cc(-c3ncnc4oc(C#CC5CCC5)cc34)c(-c3ccc(F)cc3)n2)C1` [Example 206, 3-{4-[6-(cyclobutylethynyl)furo[2,3-d]pyrimidin-4-yl]-3-(4-fluorophenyl)-1H-pyrazol-1-yl}-1λ6-thietane-1,1-dione], for which the IC50 with BaF3_EGFR d19/CS cells (setting [2]) is 1110 nM; in the experiment on BaF3_EGFR LR/CS cells (setting [3]) it was 2500 nM; in experiment [1], 6.02 nM; in the experiment with Ba/F3_EGFR WT cells (setting [4]), above 20000 nM.
For the compound `Fc1ccc(-c2nn(C3CCCCC3(F)F)cc2-c2ncnc3oc(-c4ccccc4)cc23)cc1` (centres unmarked) [Example 207, 4-[1-(2,2-difluorocyclohexyl)-3-(4-fluorophenyl)-1H-pyrazol-4-yl]-6-phenylfuro[2,3-d]pyrimidine], the IC50 was 633 nM in the experiment on BaF3_EGFR d19/CS cells (setting [2]), 140 nM in the experiment on BaF3_EGFR LR/CS cells (setting [3]), 3.26 nM in experiment [1] and 4390 nM in the experiment with Ba/F3_EGFR WT cells (setting [4]).
